What all share (format): in vivo
The test system of data set [1] is diamondback moth (Plutella xylostella). As to the kind of experiment: whole plant or invertebrate. How it is done:
The test compounds were dissolved in water. […] Serial dilutions were made to obtain the appropriate concentrations. To obtain the desired mixture concentrations of each compound, twice the desired concentration of each of the two mixture partner compounds were mixed together in equal volumes.
The diluted solutions of the test compounds were sprayed to run-off on three-week-old tomato plants. The plants were placed on a rotating turntable sprayer (10 rpm). Test solutions were applied using a flat fan air-assisted nozzle (Spraying Systems 122440) at 10 psi (69 kPa). […] The leaves were cut into pieces, which were placed singly into 5.5 cm-by-3.5 cm cells of a sixteen-cell plastic tray. Each cell contained a 2.5-cm square of moistened chromatography paper to prevent desiccation. One insect was placed in each cell. There two trays per treatment. Trays were held in the growth chamber at 25° C., 16-hour light:8-hour dark, 60% relative humidity for 4 days.
For evaluating control of diamondback moth (Plutella xylostella), cabbage (var. Stonehead) plants were grown in Metromix potting soil in 10-cm pots in aluminum trays to test size (28 days, 3-4 full leaves) the plants were sprayed to the point of runoff using the turntable sprayer as described in Test I. Test compounds were formulated and sprayed on test plants as described for Test I. After drying for 2 hours, the treated leaves were excised and infested with one cabbage looper per cell and covered. The test units were placed on trays and put in a growth chamber at 25° C. and 60% relative humidity for 4 days.

The subject of data set [2] is green peach aphid (Myzus persicae Sulzer). Briefly: whole plant or invertebrate. The settings on record: Green Peach Aphid. In a few lines: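 Compounds formulated in 10% acetone/water with 300 ppm X-77 surfactant were atomized onto aphid-infested radish seedlings, with three replicates per treatment. Infestation was 30–40 aphids transferred on excised leaf pieces, covering contact and systemic exposure. Test units stayed 6 days in a growth chamber at 19–21 °C and 50–70% relative humidity.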

The subject of data set [3] is western flower thrip (Frankliniella occidentalis Pergande). As to the kind of experiment: whole plant or invertebrate. The settings on record: single compound, spray, 7 days. In a few lines: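 Compounds in 10% acetone/90% water with 300 ppm non-ionic surfactant were sprayed onto 5- to 7-day-old bean plants, 3 replicates. After 1 h drying, 22–27 adult thrips were added per unit. Units were held 7 days at 25° C, 45–55% RH, assessing contact and/or systemic control.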

Data set [4] concerns silverleaf whitefly (Bemisia argentifolii Bellows and Perring). Briefly: whole plant or invertebrate. The settings on record: Table 2B. The method in brief:
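Whitefly-egg-infested 12–14-day-old cotton plants sprayed with compound in 10% acetone/90% water plus 300 ppm non-ionic surfactant, in triplicate. Plants then held 13 days at 28 °C and 50–70% relative humidity before mortality assessment.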

Data set [5] concerns cotton melon aphid (Aphis gossypii Glover). As to the kind of experiment: whole plant or invertebrate. The method in brief:
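Cotton plants (6–7 days old) pre-infested with 30–40 aphids by cut-leaf method, sprayed with compound (ppm) in 10% acetone/90% water with 300 ppm X-77 surfactant, three replicates. Held 6 days at 19–21 °C, 50–70% RH; contact and/or systemic control assessed.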

The test system of data set [6] is potato leafhopper (Empoasca fabae Harris). Briefly: whole plant or invertebrate. The settings on record: alone. In a few lines:
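Bean plants (5–6 days old, one primary leaf excised) were sprayed with 1 mL of compound in 10% acetone/water with 300 ppm X-77 surfactant, 3 replicates. After drying for 1 h, each unit was infested with 5 adult leafhoppers. Units were held 6 days at 19–21 °C and 50–70% RH.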

The test system of data set [7] is corn planthopper (Peregrines maidis). As to the kind of experiment: whole plant or invertebrate. Conditions: Corn Plant Hopper. The method in brief: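 Compounds in 10% acetone/90% water with 300 ppm X-77 surfactant sprayed (3 replications) onto 3- to 4-day-old corn plants, dried 1 h, then infested with 10–20 corn planthopper nymphs aged 18–20 days. Held 6 days at 19-21° C. and 50-70% relative humidity; contact and/or systemic control assessed.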

The subject of data set [8] is beet armyworm (Spodoptera exigua). As to the kind of experiment: Test I: control of beet armyworm, spray on tomato plants, excised leaves, % mortality and % feeding at 72 hours. Here is the method:
For evaluating control of beet armyworm (Spodoptera exigua), methomyl was in the liquid formulation as Lannate® LV (29% of active ingredient). Compound 1 was in a water dispersible granules (WDG) formulation with 35% active ingredient. The test compounds were dissolved in water. Enough water was added to make 100 ppm of active ingredient for each compound. Serial dilutions were made to obtain the appropriate concentrations. To obtain the desired mixture concentrations of each compound, twice the desired concentration of each of the two mixture partner compounds were mixed together in equal volumes.
The diluted solutions of the test compounds were sprayed to run-off on three-week-old tomato plants. The plants were placed on a rotating turntable sprayer (10 rpm). Test solutions were applied using a flat fan air-assisted nozzle (Spraying Systems 122440) at 10 psi (69 kPa). After each treated plant had dried, leaves were excised from the treated plant. The leaves were cut into pieces, which were placed singly into 5.5 cm-by-3.5 cm cells of a sixteen-cell plastic tray. Each cell contained a 2.5-cm square of moistened chromatography paper to prevent desiccation. One insect was placed in each cell. There two trays per treatment. […]

We go through five compounds from US8937089B2, “Synergistic mixtures of anthranilamide invertebrate pest control agents” (priority 2004, dated 2015).

As to `CNC(=O)ON=C(C)SC` [Methomyl], the “% mortality (obs)” value in data set [1] (rate 30 ppm) is reported as 80%; in data set [1] (rate 40 ppm), 90%; in data set [1] (rate 50 ppm) it was 80%; in data set [2] (rate 50 ppm), 20%; in data set [2] (rate 100 ppm) it was 61%; in data set [2] (rate 200 ppm) it was 100%. The “% mortality (obs)” value in data set [3] (rate 30 ppm) was found to be 60%; in data set [3] (rate 100 ppm), 60%; in data set [3] (rate 300 ppm) it was 100%; in data set [4] (rate 10 ppm), 4%; in data set [4] (rate 100 ppm) it was 3%; in data set [4] (rate 1000 ppm), 6%. Moreover, the “% mortality (obs)” value was 11% in data set [5] (rate 2 ppm); 35% in data set [5] (rate 5 ppm); 64% in data set [5] (rate 15 ppm); 0% in data set [6] (rate 1 ppm); 53% in data set [6] (rate 2 ppm); 100% in data set [6] (rate 5 ppm). Also, the “% mortality (obs)” value stood at 5% in data set [7] (rate 0.5 ppm), 21% in data set [7] (rate 1 ppm) and 19% in data set [7] (rate 2 ppm). Also, the “% feeding” value was determined as 17% in data set [8] (Methomyl 5.22 ppm); 29% in data set [8] (Methomyl 10.9 ppm); 9% in data set [8] (Methomyl 16.3 ppm); 10% in data set [8] (Methomyl 20.6 ppm); 3% in data set [8] (Methomyl 37.8 ppm); 0% in data set [8] (Methomyl 100 ppm). In addition, the “% mortality (observed)” value in data set [8] (Methomyl 5.22 ppm) was found to be 6%; in data set [8] (Methomyl 10.9 ppm), 10%; in data set [8] (Methomyl 16.3 ppm), 44%; in data set [8] (Methomyl 20.6 ppm), 16%; in data set [8] (Methomyl 37.8 ppm) it was 44%; in data set [8] (Methomyl 100 ppm), 84%.
For the compound Dieldrin, the “% mortality (obs)” value in data set [1] (rate 2 ppm) is 90%; in data set [1] (rate 2.5 ppm), 100%; in data set [1] (rate 3 ppm), 100%; in data set [2] (rate 10 ppm), 59%; in data set [2] (rate 100 ppm) it was 43%; in data set [2] (rate 1000 ppm), 41%. The “% mortality (obs)” value in data set [3] (rate 10 ppm) stood at 10%; in data set [3] (rate 100 ppm), 20%; in data set [3] (rate 1000 ppm), 30%; in data set [4] (rate 10 ppm) it was 0%; in data set [4] (rate 100 ppm), 0%; in data set [4] (rate 1000 ppm) it was 0%. Moreover, the “% mortality (obs)” value in data set [5] (rate 1 ppm) is reported as 13%; in data set [5] (rate 5 ppm), 26%; in data set [5] (rate 50 ppm), 66%; in data set [6] (rate 2.5 ppm) it was 27%; in data set [6] (rate 5 ppm) it was 100%; in data set [6] (rate 10 ppm), 100%. Further, the figures for the “% mortality (obs)” value in data set [7] (rate 0.1 ppm), in data set [7] (rate 0.2 ppm) and in data set [7] (rate 0.3 ppm) were 37%, 57% and 71%, respectively.
Pyridaben: the “% mortality (obs)” value in data set [1] (rate 100 ppm) came to 100%; in data set [1] (rate 150 ppm) it was 80%; in data set [1] (rate 200 ppm) it was 100%; in data set [2] (rate 1 ppm) it was 100%; in data set [2] (rate 10 ppm) it was 14%; in data set [2] (rate 60 ppm), 60%. In addition, the “% mortality (obs)” value turned out to be 30% in data set [3] (rate 10 ppm); 50% in data set [3] (rate 80 ppm); 60% in data set [3] (rate 200 ppm); 21% in data set [4] (rate 20 ppm); 55% in data set [4] (rate 30 ppm); 73% in data set [4] (rate 50 ppm). For the same compound, the “% mortality (obs)” value in data set [5] (rate 1 ppm) is on record as 11%; in data set [5] (rate 2 ppm), 15%; in data set [5] (rate 10 ppm), 71%; in data set [6] (rate 1 ppm), 0%; in data set [6] (rate 2.5 ppm), 13%; in data set [6] (rate 10 ppm), 100%. The “% mortality (obs)” value in data set [7] (rate 2 ppm) is given as 10%; in data set [7] (rate 2.5 ppm), 2%; in data set [7] (rate 3 ppm), 2%.
Spinosad: the “% mortality (obs)” value in data set [1] (rate 10 ppm) is on record as 100%; in data set [1] (rate 100 ppm) it was 90%; in data set [1] (rate 1000 ppm), 100%; in data set [2] (rate 10 ppm), 25%; in data set [2] (rate 100 ppm), 46%; in data set [2] (rate 1000 ppm), 59%. In addition, the “% mortality (obs)” value in data set [3] (rate 0.1 ppm) is 20%; in data set [3] (rate 0.5 ppm) it was 60%; in data set [3] (rate 3 ppm), 90%; in data set [4] (rate 100 ppm), 66%; in data set [4] (rate 150 ppm) it was 69%; in data set [4] (rate 300 ppm), 95%. The “% mortality (obs)” value in data set [5] (rate 10 ppm) worked out at 16%; in data set [5] (rate 100 ppm) it was 35%; in data set [5] (rate 1000 ppm), 30%; in data set [6] (rate 30 ppm), 73%; in data set [6] (rate 100 ppm) it was 80%; in data set [6] (rate 110 ppm), 47%. In addition, the “% mortality (obs)” value in data set [7] (rate 5 ppm), in data set [7] (rate 10 ppm) and in data set [7] (rate 20 ppm) was 100% throughout.
As to Thiamethoxam, the “% mortality (obs)” value in data set [1] (rate 30 ppm) is listed as 90%; in data set [1] (rate 40 ppm), 100%; in data set [1] (rate 50 ppm), 100%; in data set [2] (rate 0.2 ppm) it was 35%; in data set [2] (rate 0.4 ppm) it was 94%; in data set [2] (rate 0.6 ppm), 100%. For the same compound, the “% mortality (obs)” value in data set [3] (rate 5 ppm) turned out to be 20%; in data set [3] (rate 50 ppm) it was 80%; in data set [3] (rate 250 ppm), 90%; in data set [4] (rate 5 ppm) it was 15%; in data set [4] (rate 15 ppm), 78%; in data set [4] (rate 30 ppm), 92%. In addition, the “% mortality (obs)” value in data set [5] (rate 0.2 ppm) is reported as 24%; in data set [5] (rate 0.4 ppm), 48%; in data set [5] (rate 0.6 ppm), 66%; in data set [6] (rate 0.1 ppm), 80%; in data set [6] (rate 0.2 ppm) it was 100%; in data set [6] (rate 0.4 ppm), 100%. Moreover, the “% mortality (obs)” value in data set [7] (rate 0.2 ppm), in data set [7] (rate 0.4 ppm) and in data set [7] (rate 0.6 ppm) was 100% throughout.
